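How tested: cells in 96-well plates exposed to compound for 48 hours at five concentrations. GI50 is the concentration that inhibits growth by half.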 Active and inactive are the calls of the source. Rule as the data show it: active = GI50 up to about 1.1 µM and inactive = higher.
Assays:
Experiment in all cases: NCI-60 cell line screen, 48 h
786-0 = tested on: 786-0
A498 = tested on: A498
A549 = tested on: A549
ACHN = tested on: ACHN
BT-549 = tested on: BT-549
COLO 205 = tested on: COLO 205
DU-145 = tested on: DU-145
EKVX = tested on: EKVX
HCC 2998 = tested on: HCC 2998
HCT-15 = tested on: HCT-15
HL-60 = tested on: HL-60
HOP-62 = tested on: HOP-62
HT-29 = tested on: HT-29
Hs-578T = tested on: Hs-578T
IGROV-1 = tested on: IGROV-1
KM12 = tested on: KM12
LOX IMVI = tested on: LOX IMVI
M14 = tested on: M14
MCF7 = tested on: MCF7
MDA-MB-231 = tested on: MDA-MB-231
MDA-MB-435 = tested on: MDA-MB-435
Malme-3M = tested on: Malme-3M
NCI-H226 = tested on: NCI-H226
NCI-H23 = tested on: NCI-H23
NCI-H460 = tested on: NCI-H460
NCI-H522 = tested on: NCI-H522
NCI/ADR-RES = tested on: NCI/ADR-RES
OVCAR-3 = tested on: OVCAR-3
OVCAR-4 = tested on: OVCAR-4
OVCAR-5 = tested on: OVCAR-5
OVCAR-8 = tested on: OVCAR-8
PC-3 = tested on: PC-3
RPMI-8226 = tested on: RPMI-8226
RXF 393 = tested on: RXF 393
SF-268 = tested on: SF-268
SF-295 = tested on: SF-295
SF-539 = tested on: SF-539
SK-MEL-28 = tested on: SK-MEL-28
SK-MEL-2 = tested on: SK-MEL-2
SK-MEL-5 = tested on: SK-MEL-5
SK-OV-3 = tested on: SK-OV-3
SN12C = tested on: SN12C
SNB-19 = tested on: SNB-19
SNB-75 = tested on: SNB-75
SR = tested on: SR
SW-620 = tested on: SW-620
T47D = tested on: T47D
TK-10 = tested on: TK-10
U-251 = tested on: U-251
UACC-62 = tested on: UACC-62
UO-31 = tested on: UO-31
CAKI-1 = tested on: CAKI-1
CCRF-CEM = tested on: CCRF-CEM
HCT-116 = tested on: HCT-116
HOP-92 = tested on: HOP-92
K562 = tested on: K562
MOLT-4 = tested on: MOLT-4
UACC-257 = tested on: UACC-257

Measured: GI50

Cc1cc2c(c(S(=O)(=O)c3ccc(Cl)cc3[N+](=O)[O-])c1)NCCC2
70.8 µM: HCT-15
inactive: 786-0 > 100 µM | A498 > 100 µM | A549 38.5 µM | ACHN 18.3 µM | BT-549 > 100 µM | COLO 205 > 100 µM | DU-145 94.4 µM | EKVX > 100 µM | HCC 2998 > 100 µM | HL-60 > 10 µM | HOP-62 50.9 µM | HT-29 66.1 µM | Hs-578T > 100 µM | IGROV-1 > 100 µM | KM12 35.1 µM | LOX IMVI 5.57 µM | M14 41.9 µM | MCF7 59.6 µM | MDA-MB-231 > 100 µM | MDA-MB-435 42.9 µM | Malme-3M > 100 µM | NCI-H226 > 100 µM | NCI-H23 45 µM | NCI-H460 74.1 µM | NCI-H522 18.2 µM | NCI/ADR-RES 37.6 µM | OVCAR-3 > 100 µM | OVCAR-4 15.3 µM | OVCAR-5 > 100 µM | OVCAR-8 > 100 µM | PC-3 9.64 µM | RPMI-8226 58.5 µM | RXF 393 > 100 µM | SF-268 99.3 µM | SF-295 53.2 µM | SF-539 > 100 µM | SK-MEL-28 > 100 µM | SK-MEL-2 > 100 µM | SK-MEL-5 25.9 µM | SK-OV-3 > 100 µM | SN12C > 100 µM | SNB-19 > 100 µM | SNB-75 > 100 µM | SR 12.2 µM | SW-620 > 100 µM | T47D 1.84 µM | TK-10 > 100 µM | U-251 > 100 µM | UACC-62 8.11 µM | UO-31 > 100 µM

CC(=O)Oc1ccc2c(-c3ccccc3)c(Oc3ccc(Cl)cc3)c(=O)oc2c1
3.16 µM: HCT-15
inactive: 786-0 16.4 µM | A498 17 µM | A549 13.7 µM | ACHN 16.9 µM | BT-549 18.8 µM | CAKI-1 18.3 µM | CCRF-CEM 15.4 µM | DU-145 14.4 µM | EKVX 15.6 µM | HCC 2998 7.55 µM | HCT-116 14.9 µM | HL-60 42.3 µM | HOP-62 18.3 µM | HOP-92 10.4 µM | HT-29 20.8 µM | Hs-578T 20.1 µM | IGROV-1 15.9 µM | K562 14.8 µM | KM12 14.4 µM | LOX IMVI 20.6 µM | M14 19.8 µM | MCF7 20.7 µM | MDA-MB-231 18.7 µM | MOLT-4 18.1 µM | Malme-3M 15.6 µM | NCI-H226 17.3 µM | NCI-H23 18.7 µM | NCI-H460 14.7 µM | NCI-H522 2.82 µM | OVCAR-3 14.5 µM | OVCAR-4 15.2 µM | OVCAR-5 17.9 µM | OVCAR-8 18.5 µM | PC-3 23.1 µM | RPMI-8226 47.1 µM | RXF 393 18 µM | SF-268 6.17 µM | SF-295 17.9 µM | SF-539 16.4 µM | SK-MEL-28 17.7 µM | SK-MEL-5 18 µM | SN12C 24.1 µM | SNB-19 14.4 µM | SNB-75 7.45 µM | SR 28.8 µM | SW-620 20.3 µM | T47D 6.21 µM | TK-10 13.5 µM | U-251 4.19 µM | UACC-257 21.3 µM | UO-31 14.8 µM

— ChEMBL document CHEMBL1201862, “PubChem BioAssay data set” (2004)
